Test results: ChEMBL document CHEMBL4825690, “Synthesis and biological evaluation of chalcone-polyamine conjugates as novel vectorized agents in colorectal and prostate cancer chemotherapy” (Eur J Med Chem, 2021)
pIC50: −log10 of the molar value.

Legend:
Assay type in all cases: functional, cell-based
HCT-116 = test: Antiproliferative activity against human HCT116 cells assessed as reduction in cell viability incubated for 48 hr by MTT assay; settings: HCT-116, 48 h
DU-145 = test: Antiproliferative activity against human DU145 cells assessed as reduction in cell viability incubated for 48 hr by MTT assay; settings: DU-145, 48 h
PC-3 = test: Antiproliferative activity against human PC3 cells assessed as reduction in cell viability incubated for 48 hr by MTT assay; settings: PC-3, 48 h
HT-29 = test: Antiproliferative activity against human HT29 cells assessed as reduction in cell viability incubated for 48 hr by MTT assay; settings: HT-29, 48 h

pIC50 (HCT-116)	pIC50 (DU-145)	pIC50 (PC-3)	pIC50 (HT-29)	SMILES
4.91	5.08	4.70	4.70	COc1cc(C(=O)/C=C/c2ccc(OCCCNCCCCN)cc2)cc(OC)c1OC
4.66	4.99	4.69	4.86	COc1cc(C(=O)/C=C/c2ccc(OCCCNCCCN)cc2)cc(OC)c1OC
4.93	4.97	4.85	< 4.40	COc1cc(C(=O)/C=C/c2ccc(OCCCNCCCNCCCCNCCCN)cc2)cc(OC)c1OC
4.69	4.69	4.49	4.50	COc1cc(C(=O)/C=C/c2ccc(OCCCNCCCCNCCCN)cc2)cc(OC)c1OC
